Earlier results in patent publication EP0409862B1, “TOPICAL PREPARATIONS” (Seton Healthcare Group plc, priority 1988, dated 1989).

Question: Which results are given for `COC1=CC(=O)C[C@@H](C)[C@]12Oc1c(Cl)c(OC)cc(OC)c1C2=O` [Griseofulvin]?
Answer: solubility in various organic liquids such as alcohols: soluble; solubility in water (fine powder): essentially insoluble
